The record followed here is patent US20100004704A1, “METHOD FOR TREATING A CARDIAC RHYTHM DISTURBANCE” (The Cleveland Clinic Foundation, priority 2008, published 2010).

For this experiment, the system named is open-chest canines. In words: Dobutamine infusion followed by vagal (sinus node fat pad) stimulation, hemodynamics in open-chest canines. The format is in vivo. Here is the method: A study was done to assess the effects of dobutamine administration followed by vagal stimulation on sinus tachycardia. The study was done using 4 open-chest canines. Dobutamine was infused at a rate of 2.5-7.5 μg/kg/min to increase the cardiac contractility and the sinus rate at least 30 beats per minute. Vagal nerve stimulation was applied at the epicardial sinus node fat pad, located at the junction of the right pulmonary vein and the right atrium. Vagal stimulation was done with an electrical lead comprising a silicone plate with four platinum electrodes imbedded therein. Rectangular current pulses were delivered with intensity in the range of 1 to 5 mA, duration of pulse in the range of 0.1 ms to 1 ms, and frequency of repetition of the pulses between 20-30 Hz. To avoid tissue polarization, the polarity of consecutive pulses was alternated. Vagal nerve stimulation was administered to slow the sinus rate to the control level. Hemodynamic data was collected and compared in canines during control, during administration of dobutamine, and during both dobutamine and vagal stimulation.

[1] abbreviates: dobutamine + vagal stimulation at sinus node fat pad.
Setting [2] is: dobutamine infused 2.5-7.5 μg/kg/min, no vagal stimulation.

As to `CC(CCc1ccc(O)cc1)NCCc1ccc(O)c(O)c1` (stereo not drawn) [Dobutamine, dobutamine], the RR interval (dobutamine 2.5-7.5 μg/kg/min + vagal stimulation at sinus node fat pad (1-5 mA, 0.1-1 ms, 20-30 Hz)) is 560 ± 16 ms. Under setting [1], the “+dp/dt” value amounted to 2980 ± 602 mmHg/s, the CO came to 3.6 ± 0.8 L/min, the DBP is 74 ± 7 mmHg and the LVEDP is on record as 7.6 ± 1.5 mmHg. Under setting [1], the LVSP was found to be 120 ± 16 mmHg, the SBP is reported as 126 ± 12 mmHg and the “−dp/dt” value is on record as −1897 ± −313 mmHg/s. Moreover, under “dobutamine administration vs. control, open-chest canines”, the “heart rate, systolic blood pressure (SBP), diastolic blood pressure (DBP), left ventricular systolic pressure (LVSP) (and its ±dp/dt), and cardiac output (CO)” value is given as “significantly increased”. For the same compound, the RR interval (dobutamine infused 2.5-7.5 μg/kg/min, 4 open-chest canines, no vagal stimulation) amounted to 421 ± 36 ms. Further, under setting [2], the “+dp/dt” value is given as 3607 ± 861 mmHg/s, the CO was 4.2 ± 0.9 L/min, the DBP amounted to 84 ± 7 mmHg and the LVEDP came out at 6.9 ± 2.2 mmHg. Besides, under setting [2], the LVSP is listed as 130 ± 13 mmHg, the SBP amounted to 135 ± 18 mmHg and the “−dp/dt” value was −2259 ± −495 mmHg/s. Besides, where the note is “vagal stimulation combined with dobutamine, all other hemodynamic benefits preserved”, the sinus rate increase result was “eliminated sinus rate increase”.
